Results published in patent EP0097072A1, “Derivatives of benzylsulfinyl acetamides, their therapeutic use and process for their preparation” (LABORATOIRE L. LAFON Société anonyme dite:, priority 1982, dated 1983).

Experiments:
Format in all cases: in vivo
souris mâle [1] = assay: Toxicity: DL-0 (maximal non-lethal dose); conditions: male mouse, I.P. route
Experimental: (§1) Les résultats des essais qui ont été entrepris ont été résumés ci-après. Dans ces essais, le CRL 40569 (produit de l'exemple 1) en suspension dans une solution aqueuse de gomme arabique, et le CRL 40615 (produit de l'exemple 2) en solution dans de l'eau distillée ont été administrés par voie intrapéritonéale sous un volume de 20 ml/kg chez la souris mâle et sous un volume de 5 ml/kg chez le rat mâle.
La DL-0 (dose maximale non mortelle) chez la souris mâle par voie I.P. pour les CRL 40569 et CRL 40615 est supérieure à 1024 mg/kg.

souris mâle [2] = assay: Global behaviour and reactivities in the mouse; conditions: I.P., 512 mg/kg, observed 15 min to 24 h after administration
Experimental: as §1
(§2) Des lots de 3 animaux par dose et par produit sont observés avant,puis 15 minutes, 30 minutes, 1 h, 2h, 3h et 24 h après administration des CRL 40569 et CRL 40615.

rat mâle = assay: Global behaviour and reactivities in the rat; conditions: I.P.
Experimental: as §1, §2

souris [3] = assay: Action on spontaneous motility (actimeter); conditions: mouse, recorded 30 min, starting half an hour after dosing
Experimental: as §1
Une demi-heure après avoir reçu les produits à tester, les souris (6 par dose et par produit, 12 témoins pour chaque produit) sont placées en actimètre ou leur motilité est enregistrée pendant 30 minutes.

rats = assay: Interaction with amphetamine (amphetamine stereotypies); conditions: rat, 256 mg/kg I.P.; amphetamine 2 mg/kg I.P. half an hour after the compound
Experimental: as §1
Des lots de 6 rats reçoivent une injection par voie I.P. de 2 mg/kg d'amphétamine une demi-heure après le CRL 40569.

souris [4] = assay: Action on intergroup aggressiveness (number of fights); conditions: mouse, notably at 512 mg/kg I.P.; groups joined half an hour after dosing, fights counted over 10 minutes
Experimental: as §1
Après avoir séjourné pendant 3 semaines de part et d'autre d'une cloison opaque séparant leur cage par le milieu, des groupes de 3 souris reçoivent le CRL 40615. Une demi-heure plus tard, les deux groupes d'une même cage sont réunis par retrait de la cloison et ou note le nombre de combats qui surviennent en 10 minutes.

SMILES: COc1ccc(C[S+]([O-])CC(N)=O)cc1 (stereo not shown) [CRL 40569, 4-méthoxybenzylsulfinyl-acétamide]
- DL-0 (dose maximale non mortelle) (souris mâle [1]): > 1024 mg/kg
- comportement global et réactivités (souris mâle [2]): diminution fugace de la réactivité au toucher, de la force et du tonus musculaire
- comportement global et réactivités (rat mâle; at none of the doses used (256, 64, 16 and 4 mg/kg)): n'a entraîné des modifications nettes du comportement et des réactivités
- motilité spontanée (souris [3]; I.P., 32, 128 and 512 mg/kg): diminution de la motilité spontanée
- intensité des stéréotypies amphétaminiques (rats): diminue légèrement l'intensité des stéréotypies amphétaminiques

SMILES: COc1ccc(C[S+]([O-])CC(=O)NCCN2CCOCC2)cc1 (stereo not drawn) [CRL 40615, N-β-morpholinoéthyl-4-méthoxybenzylsulfinyl-acétamide]
- DL-0 (dose maximale non mortelle) (souris mâle [1]): > 1024 mg/kg
- comportement global et réactivités (souris mâle [2]; 128 mg/kg and 32 mg/kg): sédation pendant 15 à 30 minutes puis une excitation tardive qui se manifeste 24 h après administration
- comportement global et réactivités (rat mâle; 256 mg/kg): diminution du tonus musculaire
- motilité spontanée (souris [3]; I.P., high dose (512 mg/kg)): diminue la motilité spontanée
- nombre de combats (souris [4]): diminue le nombre de combats
